Data reported in BindingDB's records for patent US12552758 (Neophore, 2026).

Legend:
[1] = biological target: T1, DNA mismatch repair protein Mlh1 (UniProt P40692); experiment: Fluorescence Polarisation Assay for MLH1
T1 sequence (P40692 whole entry): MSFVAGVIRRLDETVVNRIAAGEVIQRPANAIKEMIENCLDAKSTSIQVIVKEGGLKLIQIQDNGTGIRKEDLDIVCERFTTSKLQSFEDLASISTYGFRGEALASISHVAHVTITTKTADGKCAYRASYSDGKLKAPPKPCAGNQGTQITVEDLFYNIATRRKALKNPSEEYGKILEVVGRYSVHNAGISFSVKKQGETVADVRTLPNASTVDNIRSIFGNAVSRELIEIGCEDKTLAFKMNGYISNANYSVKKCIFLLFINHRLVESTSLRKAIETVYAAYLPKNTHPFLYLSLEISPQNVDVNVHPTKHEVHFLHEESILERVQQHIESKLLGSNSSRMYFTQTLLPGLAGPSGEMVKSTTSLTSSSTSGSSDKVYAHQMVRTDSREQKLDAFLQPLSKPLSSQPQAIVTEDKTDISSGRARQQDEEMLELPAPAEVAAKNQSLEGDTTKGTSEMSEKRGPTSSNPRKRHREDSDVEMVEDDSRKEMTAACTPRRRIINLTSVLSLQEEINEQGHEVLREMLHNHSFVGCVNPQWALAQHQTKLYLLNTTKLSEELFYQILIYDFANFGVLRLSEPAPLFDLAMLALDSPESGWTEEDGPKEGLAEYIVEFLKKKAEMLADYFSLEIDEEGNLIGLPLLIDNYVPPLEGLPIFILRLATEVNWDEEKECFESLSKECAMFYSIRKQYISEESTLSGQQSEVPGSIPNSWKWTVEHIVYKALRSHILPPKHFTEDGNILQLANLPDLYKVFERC
Experimental: 20 μL assay buffer was added to all wells in columns 1 and 24 (column 24 only for single point screening) using a MultiDrop Combi (ThermoFisher). Plates were centrifuged for 1 minute at 250×g and were incubated at room temperature for 30 minutes prior to the addition of 20 μL of 2×(10 nM) of 5-((5-(4-((2-(2,4-dihydroxy-5-isopropylbenzoyl)isoindolin-5-yl)methyl)piperazin-1-yl)pentyl)carbamoyl)-2-(6-(dimethylamino)-3-(dimethyliminio)-3H-xanthen-9-yl)benzoate (referred to hereinafter as “probe compound”) in assay buffer (prepared from a 100 μM DMSO stock) with a MultiDrop Combi (ThermoFisher). The final concentration of N-terminal MLH1 was 100 nM and the final concentration of probe compound was 5 nM.

[2] = biological target: T2, Mismatch repair endonuclease PMS2 (UniProt P54278); experiment: Fluorescence Polarisation Assay for PMS2
T2 sequence (P54278 whole entry): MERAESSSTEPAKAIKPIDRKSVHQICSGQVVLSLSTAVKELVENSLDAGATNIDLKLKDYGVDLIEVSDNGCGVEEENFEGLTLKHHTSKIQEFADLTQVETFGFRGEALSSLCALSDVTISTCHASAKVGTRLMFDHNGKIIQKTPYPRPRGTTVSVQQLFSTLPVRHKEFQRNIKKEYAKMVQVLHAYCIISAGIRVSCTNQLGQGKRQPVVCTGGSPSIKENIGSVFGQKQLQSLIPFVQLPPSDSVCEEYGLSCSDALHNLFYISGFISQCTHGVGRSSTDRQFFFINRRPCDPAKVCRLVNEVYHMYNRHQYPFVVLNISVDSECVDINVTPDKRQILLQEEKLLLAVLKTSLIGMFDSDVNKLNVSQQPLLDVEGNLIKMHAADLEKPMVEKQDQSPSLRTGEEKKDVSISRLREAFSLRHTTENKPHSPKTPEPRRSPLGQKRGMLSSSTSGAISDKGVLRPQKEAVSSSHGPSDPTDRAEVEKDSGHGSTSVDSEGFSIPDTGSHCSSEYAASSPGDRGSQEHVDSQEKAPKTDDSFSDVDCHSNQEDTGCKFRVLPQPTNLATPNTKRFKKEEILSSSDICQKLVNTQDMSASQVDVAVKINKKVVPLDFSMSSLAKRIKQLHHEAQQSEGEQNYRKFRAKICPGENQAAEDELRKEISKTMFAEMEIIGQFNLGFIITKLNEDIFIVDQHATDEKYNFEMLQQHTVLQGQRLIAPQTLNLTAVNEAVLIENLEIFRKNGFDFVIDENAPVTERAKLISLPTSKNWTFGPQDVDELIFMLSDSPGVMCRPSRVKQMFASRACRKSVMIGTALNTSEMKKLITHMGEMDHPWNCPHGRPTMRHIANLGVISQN
Experimental: 20 μL assay buffer was added to all wells in columns 1 and 24 (column 24 only for single point screening) using a MultiDrop Combi (ThermoFisher). Plates were centrifuged for 1 minute at 250×g and were incubated at room temperature for 30 minutes prior to the addition of 20 μL of 2×([…]) of 5-((5-(4-((2-(2,4-dihydroxy-5-isopropylbenzoyl)isoindolin-5-yl)methyl)piperazin-1-yl)pentyl)carbamoyl)-2-(6-(dimethylamino)-3-(dimethyliminio)-3H-xanthen-9-yl)benzoate (referred to hereinafter as “probe compound”) in assay buffer (prepared from a 100 μM DMSO stock) with a MultiDrop Combi (ThermoFisher). The final concentration of N-terminal PMS2 was 10 nM and the final concentration of probe compound was 5 nM.

IC50 [1]	IC50 [2]	SMILES
> 10 µM	< 1 µM	Cc1c(O)cc(O)c(C(=O)N2Cc3cccc(Br)c3C2)c1OCc1ccccc1 [US12552758, Example 38]
> 10 µM	< 1 µM	Cc1c(O)cc(O)c(C(=O)N2Cc3cccnc3C2)c1OCc1ccccc1 [US12552758, Example 30]
